Results on 1 compound are retold here after patent publication US20180272042A1, “DRUG-POLYMER FILM FOR CONTROLLED LOCAL DELIVERY AT TISSUE-DEVICE INTERFACE” (Brown University, priority 2017, published 2018).

Structures are written as SMILES.

The assay concerns oxidative stress. As to the kind of experiment: oxidative stress in vitro model. It counts as cell-based. The note with it: pterostilbene compared with resveratrol.

With `Oc1ccc(C=Cc2cc(O)cc(O)c2)cc1` [resveratrol], the “treatment of oxidative stress” value is “comparable”.
